Test results reported in patent US10301295B2, “Herbicidal compounds” (Syngenta Participations AG, priority 2014, dated 2019).
Where two headings read alike, the source gives them in different places.

How the values were obtained:
Test in all cases: Glasshouse assay for herbicidal activity, pre-/post-emergence (percentage phytotoxicity)
Assay type in all cases: in vivo
[1] = tested on: Echinochloa crus-galli (ECHCG); conditions: Echinochloa crus-galli, Rate 250 g/ha, 100%=total damage, 0%=no damage
Method: (§1) Seeds of a variety of monocotyledonous and dicotyledonous test plants are sown in standard soil in pots. The plants are cultivated for one day (for pre-emergence) or for about 12 days (for post-emergence) under controlled conditions in a glasshouse (warm climate species at 24/18° C., cool climate species at 20/16° C., both at day/night; 16 hours light; 65% humidity). The test plants are then grown on, in a glasshouse (greenhouse) under controlled conditions (warm climate species at 24/18° C., cool climate species at 20/16° C., both at day/night; 16 hours light; 65% humidity) and are watered twice daily. 15 days after application of the test herbicide (15DAA) (for post-emergence), and 20 days after application of the test herbicide (20DAA) (for pre-emergence), the test plants are evaluated visually, and an assessed percentage phytotoxicity score is given for each herbicidal application on each plant species (with 100%=total damage to plant; 0%=no damage to plant). The plant species tested are as follows: Alopecurus myosuroides (ALOMY), Avena fatua (AVEFA), Lolium perenne (LOLPE), Echinochloa crus-galli (ECHCG).

Lolium perenne (LOLPE) = conditions: Lolium perenne, Rate 250 g/ha, 100%=total damage, 0%=no damage
Method: as §1

Avena fatua (AVEFA) = conditions: Avena fatua, Rate 250 g/ha, 100%=total damage, 0%=no damage
Method: as §1

[2] = tested on: Alopecurus myosuroides (ALOMY); conditions: Alopecurus myosuroides, Rate 250 g/ha, 100%=total damage, 0%=no damage
Method: as §1

[3] = post-emergence, 360 h, post-emergence, visual assessment 15 DAA, read-out: Post-emergence herbicidal activity (percentage phytotoxicity), ECHCG POST
[4] = pre-emergence, 480 h, pre-emergence, visual assessment 20 DAA, read-out: Pre-emergence herbicidal activity (percentage phytotoxicity), ECHCG PRE
[5] = post-emergence, 360 h, post-emergence, visual assessment 15 DAA, read-out: Post-emergence herbicidal activity (percentage phytotoxicity), LOLPE POST
[6] = pre-emergence, 480 h, pre-emergence, visual assessment 20 DAA, read-out: Pre-emergence herbicidal activity (percentage phytotoxicity), LOLPE PRE
[7] = post-emergence, 360 h, post-emergence, visual assessment 15 DAA, read-out: Post-emergence herbicidal activity (percentage phytotoxicity), AVEFA POST
[8] = pre-emergence, 480 h, pre-emergence, visual assessment 20 DAA, read-out: Pre-emergence herbicidal activity (percentage phytotoxicity), AVEFA PRE
[9] = 360 h, post-emergence, visual assessment 15 DAA, read-out: Post-emergence herbicidal activity (percentage phytotoxicity), ALOMY POST
[10] = 480 h, pre-emergence, visual assessment 20 DAA, read-out: Pre-emergence herbicidal activity (percentage phytotoxicity), ALOMY PRE

Structure (SMILES)	pest or weed control at 250 g/ha [1, 3] [%]	pest or weed control at 250 g/ha [1, 4] [%]	pest or weed control at 250 g/ha (Lolium perenne (LOLPE); [5]) [%]	pest or weed control at 250 g/ha (Lolium perenne (LOLPE); [6]) [%]	pest or weed control at 250 g/ha (Avena fatua (AVEFA); [7]) [%]	pest or weed control at 250 g/ha (Avena fatua (AVEFA); [8]) [%]	pest or weed control at 250 g/ha [2, 9] [%]	pest or weed control at 250 g/ha [2, 10] [%]
Cc1cc(-c2ncc(Cl)cc2F)cc(C)c1C1C(=O)CC(CCNC(=O)C2=NOC(C)(C)C2)C1=O (stereo not drawn) [Compound A117]	100	80	100	80	100	80	100	90
Cc1cc(-c2ncc(Cl)cn2)cc(C)c1C1C(=O)CC(CCNC(=O)C2=NOC(C)(C)C2)C1=O (stereo not drawn) [Compound A118]	100	90	100	90	100	90	100	100
Cc1cc(-c2ccc(C#N)cn2)cc(C)c1C1C(=O)CC(CCNC(=O)C2=NOC(C)(C)C2)C1=O (stereo not drawn) [Compound A119]	100	90	100	80	100	80	90	90
Cc1cc(-c2ncc(F)cn2)cc(C)c1C1C(=O)CC(CCNc2ccc(C(F)(F)F)cn2)C1=O (stereo not drawn) [Compound A120]	100	90	90	90	100	90	90	90
Cc1cc(C)c(C2C(=O)CC(CCNc3ncc(F)cn3)C2=O)c(C)c1 (stereo not drawn) [Compound A121]	100	100	90	100	100	100	100	100
C#Cc1cc(C)cc(C)c1C1C(=O)CC(CCNC(=O)C2=NOC(C)(C)C2)C1=O (stereo not drawn) [Compound A123, N-[2-[3-(2-ethynyl-4,6-dimethyl-phenyl)-2,4-dioxo-cyclopentyl]ethyl]-5,5-dimethyl-4H-isoxazole-3-carboxamide]	100	20	80	90	100	50	100	70
Cc1cc(C)c(C2C(=O)CC(CCNc3ncccc3C#N)C2=O)c(C)c1 (stereo not drawn) [Compound A124]	100	90	80	80	60	40	80	60
Cc1cc(C)c(C2C(=O)CC(CCNc3ncc(Cl)cn3)C2=O)c(C)c1 (stereo not drawn) [Compound A125]	100	90	100	90	90	80	90	90
Cc1cc(C)c(C2C(=O)CC(CCNc3ncc(Br)cn3)C2=O)c(C)c1 (stereo not drawn) [Compound A126, 4-[2-[(5-bromopyrimidin-2-yl)amino]ethyl]-2-(2,4,6-trimethylphenyl)cyclopentane-1,3-dione]	90	80	90	90	90	100	90	80
